The IC50 is the point on the concentration scale where inhibition reaches its midpoint.

For series [1], the system named is MCF7 (ER-positive BC) cells. The series can be described thus: MTT cell viability assay, MCF7. It is filed as cell-based, human. The source says: (§1) For in vitro assays, three tumor cell lines were used: MCF7 (ER-positive BC), maintained in Roswell Park Memorial Institute medium (RPMI-1640, Gibco®, Grand Island, NY, USA); MDA-MB-453 (HER2-positive BC), grown in Iscove’s Modified Dulbecco’s Medium (IMDM, Gibco®); and MDA-MB-231 (TNBC), grown in Leibovitz’s L-15 Medium (L15, Gibco®). Additionally, three non-tumor cell lines were used: HUVEC (human umbilical vein endothelial cells), cultured in (RPMI-1640); HFF (human fibroblast), cultured in Dulbecco’s Modified Eagle Medium: Nutrient Mixture—High Glucose (DMEM/F12-High Glucose, Gibco®); and MCF10A (human mammary epithelial cell line), also cultured in DMEM/F12 supplemented with 10 μg/mL of insulin (Gibco®), 0.25 μg/mL of hydrocortisone (Sigma-Aldrich®, Saint Louis, MO, USA), and […] of Epidermal Growth Factor (EGF) (Gibco®). All culture media were supplemented with 10% fetal bovine serum (FBS) (Gibco®) and 50 μg/mL of gentamicin (Cultilab®, Campinas, SP, Brazil). The culture flasks were kept in an incubator at 37 °C under an atmosphere of 5% CO2, except for the MDA-MB 231 lineage, which was grown without CO2 gas exchange. All cells were purchased from the American Type Culture Collection (ATCC, Manassas, VA, USA).
(§2) To analyze cell viability, the test based on the reduction of tetrazolium 3-(4,5-dimethylthiazol-2yl)-2,5-diphenyl bromide (MTT) was used. HUVEC cell lines (1.0 × 10^4 cells/well); HFF (8.0 × 10^3 cells/well); MCF10A (1.2 × 10^4 cells/well); MDA-MB-453 and MCF7 (5.0 × 10^3 cells/well) and MDA-MB-231 (1.5 × 10^4 cells/well) were seeded in 96-well plates in complete culture medium. […] All assays were performed in triplicate. Wells containing only cells and medium (untreated cells) and wells containing cells treated with DMSO diluent were used as experimental controls (considered as 100% cell viability). After incubation, MTT (5 mg/mL-diluted in phosphate-buffered saline—PBS) was added along with complete culture medium at 10% v/v and maintained for 4 h. Then, 200 μL of DMSO was added to each well and the reading was carried out at 560 nm using the Multiskan FC Microplate Photometer reader (Thermo Fisher Scientific®, Waltham, MA, USA).
(§3) The data obtained were analyzed using GraphPad Prism 8.0 software. Three independent triplicate assays were conducted and means and standard deviations were calculated. Normality was assessed using the Shapiro–Wilk test and Student’s t-test and one-way ANOVA, followed by Tukey’s post-test, were applied to compare treatments. Differences were considered significant when p < 0.05. The IC50 values were calculated by non-linear regression and the selectivity index (SI) for MDA-MB-231 cells was established by the ratio between the IC50 of each non-tumor cell line and the IC50 of MDA-MB-231. SI values ≥ 2 were considered significant.
Background: Tetrazolium dyes change colour on reduction, which living cells bring about.

Series [2] concerns HFF (human fibroblast). The series can be described thus: MTT cell viability assay, HFF. It counts as cell-based. Here is the method: (§4) For in vitro assays, three tumor cell lines were used: MCF7 (ER-positive BC), maintained in Roswell Park Memorial Institute medium (RPMI-1640, Gibco®, Grand Island, NY, USA); MDA-MB-453 (HER2-positive BC), grown in Iscove’s Modified Dulbecco’s Medium (IMDM, Gibco®); and MDA-MB-231 (TNBC), grown in Leibovitz’s L-15 Medium (L15, Gibco®). […]
(§5) To analyze cell viability, the test based on the reduction of tetrazolium 3-(4,5-dimethylthiazol-2yl)-2,5-diphenyl bromide (MTT) was used. […] Then, 200 μL of DMSO was added to each well and the reading was carried out at 560 nm using the Multiskan FC Microplate Photometer reader (Thermo Fisher Scientific®, Waltham, MA, USA).
(§6) The data obtained were analyzed using GraphPad Prism 8.0 software. Three independent triplicate assays were conducted and means and standard deviations were calculated. Normality was assessed using the Shapiro–Wilk test and Student’s t-test and one-way ANOVA, followed by Tukey’s post-test, were applied to compare treatments. […] The IC50 values were calculated by non-linear regression and the selectivity index (SI) for MDA-MB-231 cells was established by the ratio between the IC50 of each non-tumor cell line and the IC50 of MDA-MB-231. […]

The test system of series [3] is MDA-MB-453 (HER2-positive BC) cells. Nature of the series: MTT cell viability assay, MDA-MB-453. It counts as cell-based, human. Here is the method: All culture media were supplemented with 10% fetal bovine serum (FBS) (Gibco®) and 50 μg/mL of gentamicin (Cultilab®, Campinas, SP, Brazil). […] All cells were purchased from the American Type Culture Collection (ATCC, Manassas, VA, USA).
as §2, with “used.” for “used. HUVEC cell lines (1.0 × 10^4 cells/well); HFF (8.0 × 10^3 cells/well); MCF10A (1.2 × 10^4 cells/well); MDA-MB-453 and MCF7 (5.0 × 10^3 cells/well) and MDA-MB-231 (1.5 × 10^4 cells/well) were seeded in 96-well plates in complete culture medium.”
The data obtained were analyzed using GraphPad Prism 8.0 software. Three independent triplicate assays were conducted and means and standard deviations were calculated. Normality was assessed using the Shapiro–Wilk test and Student’s t-test and one-way ANOVA, followed by Tukey’s post-test, were applied to compare treatments. Differences were considered significant when p < 0.05. […] SI values ≥ 2 were considered significant.

For series [4], the system named is HUVEC (human umbilical vein endothelial cells). The series can be described thus: MTT cell viability assay, HUVEC. It is filed as cell-based. Here is the method:
as §4, §5, §6

Series [5] deals with MDA-MB-231 (TNBC) cells. Nature of the series: MTT cell viability assay, MDA-MB-231. It counts as cell-based, human.
Source text: as §1, §2, §3

Series [6] concerns MCF10A (human mammary epithelial cell line). Nature of the series: MTT cell viability assay, MCF10A. It counts as cell-based. Also noted: key to SI (Non-Tumor/MDA-MB231) MCF10A: NS: nonselective; HS: highly selective.
Source text: as §1, §5, §6

Series [7] in a line: Solubility in solvents. It counts as physicochemical.

Each structure is given as a SMILES string. A value given as a limit tells only on which side of the number the result lay.

`CCNC(=NN=C(C)c1ccccn1)[S][Zn][O]C(=NN=C(C)c1ccccn1)c1ccco1` [Complex 1, [Zn(Hz)(atc–Et)]]: the IC50 in series [1] (48 h) is 9.43 µM; in series [2] (48 h, MTT, non-tumor cell line) it was 4.57 µM; in series [3] (48 h), 0.32 µM; in series [4] (48 h, MTT, non-tumor cell line) it was 2.52 µM; in series [5] (48 h), 0.24 µM; in series [6] (48 h, MTT, non-tumor cell line) it was less than 0.01 µM. Besides, in series [1] (48 h), the “concentration from which cell viability decreased, MCF7” value was no less than 0.25 µM. Moreover, the “cytotoxicity in words, MCF7” value in series [1] (48 h) is “proliferated after treatment with the lowest concentrations”. Further, in series [2] (IC50 in HFF divided by IC50 of MDA-MB-231), the “SI (Non-Tumor/MDA-MB231) HFF” value came to 19.04. In addition, the “cytotoxicity in words, MDA-MB-453” value in series [3] (48 h) is “cytotoxic”. For the same compound, the “SI (Non-Tumor/MDA-MB231) HUVEC” value in series [4] (IC50 in HUVEC divided by IC50 of MDA-MB-231) worked out at 10.50. Moreover, the “cytotoxicity in words, MDA-MB-231” value in series [5] (48 h) is given as “cytotoxic”. Besides, the “sensitivity in words, MCF10A” value in series [6] (48 h, MTT, compared with HUVEC and HFF) is on record as “most sensitive”. Besides, the “SI (Non-Tumor/MDA-MB231) MCF10A” value in series [6] (IC50 in MCF10A divided by IC50 of MDA-MB-231) is on record as “NS”.
Consider `CC(=NNC(N)=O)c1ccccn1.CCNC(=NN=C(C)c1ccccn1)[S][Zn+].[Cl-]` [Complex 3, [Zn(atc–Et)(Hsc)]Cl], for which, in series [7], the “solubility in MeOH” value is on record as “pretty soluble”.
On the same count and under the same terms, under `CC(=NN=C([O][Zn+])c1ccco1)c1ccccn1.CC(=NNC(N)=O)c1ccccn1.[Cl-]` [Complex 4, [Zn(Hz)(Hsc)]Cl] stands “pretty soluble”.
In the case of `CCNC(=S)N/N=C(\C)c1ccccn1` [Hatc-Et, 2-Acetylpyridine-4-ethyl-3-thiosemicarbazone], in series [1] (48 h), the “cytotoxicity in words, MCF7” value is listed as “most resistant”. In addition, the IC50 in series [1] (Homo sapiens, MCF7, 48 h) was greater than 156 µM; in series [3] (Homo sapiens, MDA-MB-453, 48 h), less than 0.01 µM; in series [5] (Homo sapiens, MDA-MB-231, 48 h) it was 0.27 µM. In series [3] (48 h), the “cytotoxicity in words, MDA-MB-453” value is given as “most sensitive”. The “cytotoxicity in words, MDA-MB-231” value in series [5] (48 h) is on record as “most sensitive”.
Take `CC(=NNC(=O)c1ccco1)c1ccccn1` [Hhz, 2-Acetylpyridine-furanoylhidrazone]: the “concentration from which cell viability decreased, MCF7” value in series [1] (48 h) is no less than 6.25 µM. Moreover, the IC50 in series [1] (Homo sapiens, MCF7, 48 h) was greater than 156 µM; in series [3] (Homo sapiens, MDA-MB-453, 48 h), 4.11 µM; in series [5] (Homo sapiens, MDA-MB-231, 48 h), 30.3 µM. In addition, in series [3] (48 h), the “concentration from which cell viability decreased, MDA-MB-453” value was no less than 6.25 µM. Besides, the “concentration from which cytotoxicity was observed, MDA-MB-231” value in series [5] (48 h) is no less than 1250 nM.
With `[Cl-].[Cl-].[Zn+2]` [ZnCl2, zinc chloride], the IC50 in series [1] (48 h) is greater than 156 µM; in series [3] (48 h) it was less than 0.01 µM; in series [5] (48 h) it was greater than 156 µM.

Source of the values: PMC11676115, “A New Heteroleptic Zn(II) Complex with Schiff Bases Sensitizes Triple-Negative Breast Cancer Cells to Doxorubicin and Paclitaxel” (Pharmaceutics, 2024).
